In patent US20120183580A1, “Analgesic Composition for Transbuccal Administration” (priority 2011, published 2012):
Where two headings read alike, the source gives them in different places. Where a SMILES comes first, the peptide text is derived from it.

Experiments:
[1] = cited from earlier work; for bioavailability by the sublingual route: oxytocin in physiological saline solution
rats [2] = experiment: elevated-plus maze test; details: rat, in vivo
Excerpt: Two opposite arms of the elevated-plus maze are enclosed by high walls (closed arms) while the other two are not (open arms). The test animals (rats) naturally prefer and spend more time in the closed aims.

Swiss albino mice [3] = test system: Swiss albino mice
Protocol: Swiss albino mice (˜20-30 g) were first trained on the rotarod, which accelerated from 0-20 rpm over 5 min, prior to the experiment. Only mice that were capable of staying on the rotarod for the entire 5 min period were used in this experiment. Mice were either administered with the peptide (1 or 10 mg/kg, sublingual), or morphine (20 mg/kg, subcutaneous). After drug administration, the animals are placed on the rotarod and the time taken for the mice to slip was recorded (up to 5 min), and subsequently at 1 h, 2 h and 3 h post peptide, and at 30 min, 1 h 30 min and 2 h 30 min post morphine. Statistical comparison was done by either Student's t-test or one-way ANOVA.

Swiss albino mice [4] = test system: Swiss albino mice; remark: listed apart in the source
Protocol: Swiss albino mice (˜30-40 g) were first placed into their respective chambers with a 20 min pre-treatment recording. Only mice showing at least 50 counts/5 min are used in the experiments. Mice were administered saline (control), peptide (5 or 50 mg/kg) or morphine (50 mg/kg). Experimenters were blind to the identity of the drug solutions. […] Statistical comparison was done by 2-way ANOVA.

Swiss albino mice [5] = details: mouse, in vivo
Protocol: Swiss albino mice (30-35 g) were injected with saline, the peptide (5 mg/kg, 50 mg/kg intraperitoneal) or morphine (0.5 mg/kg, 5 mg/kg, 50 mg/kg intraperitoneal). The experimenters are blind to the identity of the solutions. All mice were administered 5 mg charcoal (0.1 ml of 50 mg/ml charcoal solution) via oral gavage immediately after drug administration. At 30 min post-drug/charcoal administration, the mice were sacrificed by cervical dislocation and the GI tract was exposed and the location of the charcoal identified. The distance the charcoal traveled in the intestine from the stomach was measured and expressed as % of total length of the GI tract.

[6] = pharmacokinetics: plasma concentration by LC/MS/MS after sublingual, intravenous, oral, intraperitoneal administration; assay type: in vivo, mice; details: mouse
Protocol: The peptide (1, 5, 15 and 25 mg/kg, 0.5 ml/kg) was administered sublingually to mice. Upon reaching specified time points of 1, 5, 15, 30, 60 and 120 min post-dose, each mouse was sacrificed and blood samples were collected via cardiac puncture. Plasma samples were then extracted and analyzed under LC/MS/MS.
Systemic exposure of the peptide was also studied through intravenous, oral (gavage) and intraperitoneal routes.

Swiss albino mice [7] = experiment: toxicity, single dose regimen; assay type: in vivo; details: single dose 8 or 80 mg/kg intraperitoneal, day 14
Protocol: (§1) Swiss albino mice were administered with the peptide at 8 mg/kg or 80 mg/kg (intraperitoneal) on day 1 and then observed for 14 days. Control mice received saline. At the end of the period, all mice were sacrificed, dissected and observed for any obvious abnormality. Weights of the major organs, including brain, heart, lung, liver, spleen and kidney, were recorded.

Swiss albino mice [8] = experiment: toxicity, multiple dose regimen; assay type: in vivo; details: 8 or 80 mg/kg intraperitoneal daily, 14 days
Protocol: as §1, with “once daily” for “on day 1 and then observed”, “killed,” for “sacrificed,”

C57 mice = assay type: in vivo; details: 8 or 80 mg/kg intraperitoneal once daily for 14 days
Protocol: as §1, with “once daily” for “on day 1 and then observed”, “killed,” for “sacrificed,”
The multiple dose toxicity testing was repeated exactly as described above except that C57 mice were used instead of Swiss albino mice. Similar results were obtained in terms of body weights, vital organ weights and behavior of control and treated animals (data not shown).

acute high dose toxicity = assay type: in vivo, mice; details: mouse, in vivo; intravenous, mice
Protocol: (§2) Acute toxicity was determined by both oral and intravenous administration of the peptide. Three mice were given a dose of peptide at 2 g/kg orally by gavage, 5 ml/kg.

mice = experiment: acute high dose toxicity; assay type: in vivo
Protocol: as §2

Sprague-Dawley rats = experiment: acute effect on blood pressure in anesthetized rats; assay type: in vivo; details: for effect on blood pressure: 5 and 20 mg/kg
Protocol: Sprague-Dawley rats (˜300 g) were anesthetized and the carotid artery was cannulated for blood pressure measurement. Drugs were administered by the pre-determined route. A pulse transducer was secured across the thoracic region of the rat to allow measurement of respiration rate. Blood pressure was recorded for at least 15 min or until a relatively stable blood pressure was observed.

rats [9] = details: 1 or 50 mg/kg intraperitoneal, vs saline control
Excerpt: The open field was divided into 16 equal size squares (25×25 cm). The 4 squares at the centre are assigned a low anxiety score (0) while those at the 4 corners are assigned a high anxiety score (2). The remaining 8 squares are assigned a medium score (1). A rat entering each square will be given the score assigned to that square. The sum total obtained within the 5-min test period divided by the number of squares entered is the anxiety score for that rat. Diazepam was used as positive control. Statistical comparison was done by Student's t-test.

## NC(=O)CC[C@@H]1NC(=O)[C@H](Cc2ccccc2)NC(=O)[C@H](Cc2ccc(O)cc2)NC(=O)CCSSC[C@@H](C(=O)N2CCC[C@H]2C(=O)N[C@H](CCCN=C(N)N)C(=O)NCC(N)=O)NC(=O)[C@H](CC(N)=O)NC1=O [desmopressin]
[1]
  bioavailability by the sublingual route: about 0.25%

## CN1C(=O)CN=C(c2ccccc2)c2cc(Cl)ccc21 [diazepam]
Rats [2]
  time spent in the open or closed arms: reversed the times spent in open and closed arms

## CN1CC[C@]23c4c5ccc(O)c4O[C@H]2[C@@H](O)C=C[C@H]3[C@H]1C5 [morphine, reference compound]
Swiss albino mice [3]; mouse, in vivo
  motor-coordination (time on rotarod): No statistical significant effects
Swiss albino mice [4]; mouse, in vivo
  locomotor activity vs control: significant increase in locomotive activities
Swiss albino mice [5]
  GI motility (distance traveled by charcoal): dose-dependently decreased GI motility

## CC[C@H](C)[C@@H]1NC(=O)[C@H](Cc2ccc(O)cc2)NC(=O)[C@@H](N)CSSC[C@@H](C(=O)N2CCC[C@H]2C(=O)N[C@@H](CC(C)C)C(=O)NCC(N)=O)NC(=O)[C@H](CC(N)=O)NC(=O)[C@H](CCC(N)=O)NC1=O [oxytocin]
[1]; formulation including 0.75% w/w sodium taurocholate (tablet form)
  bioavailability: 27%
[1]
  bioavailability by the sublingual route: 0.007-0.07%

## C[C@@H](O)[C@H](NC(=O)[C@@H]1CCCN1C(=O)[C@H](Cc1ccccc1)NC(=O)[C@@H]1CCCN1C(=O)[C@@H](N)CC(N)=O)C(=O)N[C@@H](Cc1c[nH]c2ccccc12)C(=O)N[C@@H](CCCNC(=N)N)C(=O)N[C@@H](CCCCN)C(=O)N[C@@H](CCCNC(=N)N)C(=O)N1CCC[C@H]1C(=O)NCC(=O)O [the peptide, NPFPTWRKRPG] (H-NPFPTWRKRPG-OH; N-terminus and C-terminus assumed)
[6]; 25 mg/kg, sublingual route, AUC compared to intravenous route
  bioavailability: 44%
[6]; after sublingual administration, read-out: time of highest level in the plasma (converted)
  Tmax: 5 min
Swiss albino mice [7]
  organ appearance: All organs appeared normal
Swiss albino mice [8]
  organ appearance: All organs appeared normal
C57 mice
  death: No death occurred
Acute high dose toxicity
  LD50 at 2 weeks: ~125 mg/kg
mice; 62.5 mg/kg intravenous
  clinical observation: appeared sedated
mice; 125 mg/kg intravenous
  clinical observation, surviving mice: appeared heavily sedated for several hours
mice; 2 g/kg oral by gavage
  clinical observation: appeared sedated with much decreased activity
Sprague-Dawley rats; intravenous route
  effect on blood pressure: decreased in blood pressure
Sprague-Dawley rats; sublingual or intraperitoneal routes
  effect on blood pressure: did not cause any changes in blood pressure
Sprague-Dawley rats; all experiments (5 and 20 mg/kg, all routes)
  heart rate and respiration rate: No significant changes
Swiss albino mice [3]; 1 or 10 mg/kg sublingual, up to 3 h post-dose
  motor-coordination (time on rotarod): No statistical significant effects
Swiss albino mice [4]; 5 or 50 mg/kg, within 4 h of drug administration
  locomotor activity vs control: no significant difference
Rats [9]
  anxiety score: did not show any effect
